Holding throughout (experiment): Affinity-purification and mass spectrometry (AP-MS) chemical proteomics, all proteins;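 for Difference: 200 µM free competitor with 20 µM biotin probe overnight in lysate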
Holding throughout (type): binding

Assay [1] concerns the target T1, proteins displaced from immobilized biotin-Cmpd 1 pulldowns (U2OS cell lysate) (Homo sapiens, UniProt P04083).
T1 construct: endogenous in cells; host or cells: U2OS
The following applies: GN=ANXA1 (P04083).

For assay [2], the target named is T2, proteins displaced from immobilized biotin-Cmpd 1 pulldowns (U2OS cell lysate) (Homo sapiens, UniProt P35606).
T2 construct: endogenous in cells; host or cells: U2OS
The settings on record: GN=COPB2 (P35606).

Assay [3] relates to proteins displaced from immobilized biotin-Cmpd 1 pulldowns (U2OS cell lysate). The settings on record: Cmpd minus DMSO.
The target in assay [4] is T3, proteins displaced from immobilized biotin-Cmpd 1 pulldowns (U2OS cell lysate) (Homo sapiens, UniProt Q7Z2W4).
T3 construct: endogenous in cells; host or cells: U2OS
The settings on record: GN=ZC3HAV1 (Q7Z2W4).

The target in assay [5] is T4, proteins displaced from immobilized biotin-Cmpd 1 pulldowns (U2OS cell lysate) (Homo sapiens, UniProt Q13765).
T4 construct: endogenous in cells; host or cells: U2OS
The settings on record: GN=NACA (Q13765).

The target in assay [6] is T5, proteins displaced from immobilized biotin-Cmpd 1 pulldowns (U2OS cell lysate) (Homo sapiens, UniProt Q9UN81).
T5 construct: endogenous in cells; host or cells: U2OS
The settings on record: GN=L1RE1 (Q9UN81).

The target in assay [7] is T6, proteins displaced from immobilized biotin-Cmpd 1 pulldowns (U2OS cell lysate) (Homo sapiens, UniProt O75369).
T6 construct: endogenous in cells; host or cells: U2OS
The settings on record: GN=FLNB (O75369).

The target in assay [8] is T7, proteins displaced from immobilized biotin-Cmpd 1 pulldowns (U2OS cell lysate) (Homo sapiens, UniProt O43660).
T7 construct: endogenous in cells; host or cells: U2OS
The settings on record: GN=PLRG1 (O43660).

Assay [9] has as its target T8, proteins displaced from immobilized biotin-Cmpd 1 pulldowns (U2OS cell lysate) (Homo sapiens, UniProt P01040).
T8 construct: endogenous in cells; host or cells: U2OS
The settings on record: GN=CSTA (P01040).

Values joined by “and” are separate entries in the source; they are usually repeats but may differ in a detail not shown here. Equal entries are not always repeated.

T1 sequence (P04083 whole entry): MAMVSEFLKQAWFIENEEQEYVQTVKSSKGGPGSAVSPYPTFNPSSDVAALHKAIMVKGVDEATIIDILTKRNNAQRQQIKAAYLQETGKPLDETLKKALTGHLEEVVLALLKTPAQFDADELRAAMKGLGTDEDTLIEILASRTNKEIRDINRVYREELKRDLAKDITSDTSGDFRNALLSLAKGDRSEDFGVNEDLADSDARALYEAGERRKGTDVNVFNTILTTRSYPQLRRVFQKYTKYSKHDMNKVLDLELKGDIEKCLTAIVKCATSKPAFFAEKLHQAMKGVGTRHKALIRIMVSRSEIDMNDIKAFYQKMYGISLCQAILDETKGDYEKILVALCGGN
T5 sequence (Q9UN81 whole entry): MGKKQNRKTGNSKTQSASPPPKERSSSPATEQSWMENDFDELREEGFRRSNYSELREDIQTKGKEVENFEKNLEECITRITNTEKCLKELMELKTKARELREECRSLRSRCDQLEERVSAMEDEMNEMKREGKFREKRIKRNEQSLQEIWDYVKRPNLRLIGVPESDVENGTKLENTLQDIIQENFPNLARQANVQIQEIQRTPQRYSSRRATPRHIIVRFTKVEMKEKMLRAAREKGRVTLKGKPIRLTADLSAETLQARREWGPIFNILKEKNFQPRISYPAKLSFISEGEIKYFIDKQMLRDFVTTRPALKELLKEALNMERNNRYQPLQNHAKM
T8 sequence (P01040 whole entry): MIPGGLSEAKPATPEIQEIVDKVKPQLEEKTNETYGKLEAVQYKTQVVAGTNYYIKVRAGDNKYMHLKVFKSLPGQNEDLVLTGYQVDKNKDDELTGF
T3 sequence (Q7Z2W4 whole entry): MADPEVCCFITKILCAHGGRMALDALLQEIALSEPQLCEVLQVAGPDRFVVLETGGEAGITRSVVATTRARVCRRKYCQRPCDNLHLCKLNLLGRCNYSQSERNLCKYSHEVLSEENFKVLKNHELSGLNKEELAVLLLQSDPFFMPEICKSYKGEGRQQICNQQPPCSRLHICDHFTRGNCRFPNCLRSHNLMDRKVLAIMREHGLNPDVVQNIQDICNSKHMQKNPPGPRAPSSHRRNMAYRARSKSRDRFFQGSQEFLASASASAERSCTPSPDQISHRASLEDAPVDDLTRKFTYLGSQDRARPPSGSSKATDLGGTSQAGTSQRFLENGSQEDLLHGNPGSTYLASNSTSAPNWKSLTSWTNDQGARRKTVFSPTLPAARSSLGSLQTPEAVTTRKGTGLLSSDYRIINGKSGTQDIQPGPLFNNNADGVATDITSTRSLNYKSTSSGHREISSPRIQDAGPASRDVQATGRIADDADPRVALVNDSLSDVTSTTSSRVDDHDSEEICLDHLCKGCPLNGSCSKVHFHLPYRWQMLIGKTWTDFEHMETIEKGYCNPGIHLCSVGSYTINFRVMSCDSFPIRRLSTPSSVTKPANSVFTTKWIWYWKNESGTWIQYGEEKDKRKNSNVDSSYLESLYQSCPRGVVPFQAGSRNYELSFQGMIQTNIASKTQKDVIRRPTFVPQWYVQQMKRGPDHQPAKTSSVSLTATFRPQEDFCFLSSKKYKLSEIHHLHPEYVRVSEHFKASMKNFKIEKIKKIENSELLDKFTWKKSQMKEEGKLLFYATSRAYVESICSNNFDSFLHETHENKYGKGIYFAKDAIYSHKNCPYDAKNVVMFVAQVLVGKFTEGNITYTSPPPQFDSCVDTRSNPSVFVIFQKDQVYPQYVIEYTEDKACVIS
T6 sequence (O75369 whole entry): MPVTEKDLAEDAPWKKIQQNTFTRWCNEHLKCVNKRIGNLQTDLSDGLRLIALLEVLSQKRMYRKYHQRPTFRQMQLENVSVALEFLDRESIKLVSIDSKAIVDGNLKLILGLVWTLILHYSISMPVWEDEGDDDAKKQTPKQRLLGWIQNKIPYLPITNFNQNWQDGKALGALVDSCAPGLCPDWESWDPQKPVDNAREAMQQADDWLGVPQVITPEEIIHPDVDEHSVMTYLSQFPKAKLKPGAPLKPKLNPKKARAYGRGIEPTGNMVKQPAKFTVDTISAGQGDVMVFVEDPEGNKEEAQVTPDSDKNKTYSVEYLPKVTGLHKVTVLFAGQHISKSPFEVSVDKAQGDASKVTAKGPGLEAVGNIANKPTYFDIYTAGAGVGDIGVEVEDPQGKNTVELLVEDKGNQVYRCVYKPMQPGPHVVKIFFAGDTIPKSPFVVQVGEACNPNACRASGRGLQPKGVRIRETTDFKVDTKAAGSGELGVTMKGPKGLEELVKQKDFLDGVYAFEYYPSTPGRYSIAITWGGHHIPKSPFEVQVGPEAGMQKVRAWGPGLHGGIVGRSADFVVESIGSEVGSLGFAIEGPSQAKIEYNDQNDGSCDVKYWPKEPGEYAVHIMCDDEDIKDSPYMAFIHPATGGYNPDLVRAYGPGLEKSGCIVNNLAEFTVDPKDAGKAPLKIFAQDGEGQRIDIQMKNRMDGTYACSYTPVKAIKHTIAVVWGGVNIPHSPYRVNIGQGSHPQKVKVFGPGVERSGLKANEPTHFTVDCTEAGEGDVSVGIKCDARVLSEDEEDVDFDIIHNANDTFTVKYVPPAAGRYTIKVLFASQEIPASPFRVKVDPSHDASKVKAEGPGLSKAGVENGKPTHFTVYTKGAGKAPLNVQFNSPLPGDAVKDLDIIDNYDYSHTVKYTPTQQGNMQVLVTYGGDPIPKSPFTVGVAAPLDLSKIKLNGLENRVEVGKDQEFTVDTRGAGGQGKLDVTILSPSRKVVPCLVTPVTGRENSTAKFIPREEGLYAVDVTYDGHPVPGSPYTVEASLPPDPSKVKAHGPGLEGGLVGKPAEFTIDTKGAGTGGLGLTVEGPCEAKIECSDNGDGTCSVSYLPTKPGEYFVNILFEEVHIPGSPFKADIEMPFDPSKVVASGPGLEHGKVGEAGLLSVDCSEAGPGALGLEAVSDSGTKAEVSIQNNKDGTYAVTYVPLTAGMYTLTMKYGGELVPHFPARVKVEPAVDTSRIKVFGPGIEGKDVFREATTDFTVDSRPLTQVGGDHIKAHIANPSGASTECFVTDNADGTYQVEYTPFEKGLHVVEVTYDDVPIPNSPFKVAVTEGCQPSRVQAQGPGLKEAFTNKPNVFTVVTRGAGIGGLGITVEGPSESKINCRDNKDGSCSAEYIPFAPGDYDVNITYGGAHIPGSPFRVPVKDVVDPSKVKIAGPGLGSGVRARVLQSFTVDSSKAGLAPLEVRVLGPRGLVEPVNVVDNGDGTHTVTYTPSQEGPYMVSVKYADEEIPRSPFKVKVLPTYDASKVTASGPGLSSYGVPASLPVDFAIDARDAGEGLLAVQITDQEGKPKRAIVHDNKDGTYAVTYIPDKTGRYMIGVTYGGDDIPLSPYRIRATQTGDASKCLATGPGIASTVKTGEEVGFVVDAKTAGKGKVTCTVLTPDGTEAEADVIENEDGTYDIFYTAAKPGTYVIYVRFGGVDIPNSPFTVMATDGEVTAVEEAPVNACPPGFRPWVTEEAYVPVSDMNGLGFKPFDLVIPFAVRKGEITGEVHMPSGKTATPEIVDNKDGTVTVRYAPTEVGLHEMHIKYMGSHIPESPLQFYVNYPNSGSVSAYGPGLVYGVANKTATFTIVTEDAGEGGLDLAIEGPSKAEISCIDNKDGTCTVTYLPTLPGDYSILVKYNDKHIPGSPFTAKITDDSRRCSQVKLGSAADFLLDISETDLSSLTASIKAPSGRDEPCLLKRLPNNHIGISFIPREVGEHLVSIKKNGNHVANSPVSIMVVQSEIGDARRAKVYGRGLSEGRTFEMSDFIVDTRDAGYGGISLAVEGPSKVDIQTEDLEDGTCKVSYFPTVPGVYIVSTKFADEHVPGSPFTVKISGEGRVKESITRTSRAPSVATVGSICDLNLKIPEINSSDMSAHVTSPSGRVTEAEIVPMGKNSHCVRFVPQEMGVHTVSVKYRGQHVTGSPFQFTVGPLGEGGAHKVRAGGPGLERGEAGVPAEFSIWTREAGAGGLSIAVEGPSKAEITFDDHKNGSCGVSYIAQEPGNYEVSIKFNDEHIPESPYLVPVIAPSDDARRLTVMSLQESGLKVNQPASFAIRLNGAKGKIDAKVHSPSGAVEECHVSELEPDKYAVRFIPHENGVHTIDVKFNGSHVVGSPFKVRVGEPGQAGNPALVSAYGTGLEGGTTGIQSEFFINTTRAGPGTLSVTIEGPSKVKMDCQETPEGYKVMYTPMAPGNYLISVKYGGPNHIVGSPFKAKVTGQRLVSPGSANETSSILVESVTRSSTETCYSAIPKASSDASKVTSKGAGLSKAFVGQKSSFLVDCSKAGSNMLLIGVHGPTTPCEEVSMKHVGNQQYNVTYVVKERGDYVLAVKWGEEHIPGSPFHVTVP
T7 sequence (O43660 whole entry): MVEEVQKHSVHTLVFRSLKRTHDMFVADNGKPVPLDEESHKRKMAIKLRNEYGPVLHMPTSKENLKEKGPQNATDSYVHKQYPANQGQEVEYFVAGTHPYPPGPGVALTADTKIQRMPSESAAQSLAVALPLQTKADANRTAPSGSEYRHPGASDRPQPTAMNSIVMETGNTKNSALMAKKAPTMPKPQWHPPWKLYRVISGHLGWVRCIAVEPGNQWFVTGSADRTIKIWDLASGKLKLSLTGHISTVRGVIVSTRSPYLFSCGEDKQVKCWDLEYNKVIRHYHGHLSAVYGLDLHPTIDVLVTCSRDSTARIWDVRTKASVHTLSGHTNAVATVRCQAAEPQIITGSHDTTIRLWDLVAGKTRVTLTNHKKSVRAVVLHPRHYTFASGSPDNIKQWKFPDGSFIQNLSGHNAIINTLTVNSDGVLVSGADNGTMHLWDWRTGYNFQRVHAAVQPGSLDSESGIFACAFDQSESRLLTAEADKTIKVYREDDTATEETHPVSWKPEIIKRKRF

Turning to `Cn1c2c(c(=N)c3c1CCC3)CCC2` [Compound 1, 4-methyl-2,3,4,5,6,7-hexahydrodicyclopenta[b,e]pyridin-8(1H)-imine], the Difference in assay [1] (Cmpd minus DMSO, -LOG(P-value) 1.67082) is reported as -2.872; in assay [2] (Cmpd minus DMSO, -LOG(P-value) 1.0232) it was 1.032; in assay [3] (GN=ACTA1/ACTC1 (P68133;P68032;P63267;P62736), -LOG(P-value) 1.19415), -2.469; in assay [3] (GN=FXR1 (P51114;P51116 FXR2), -LOG(P-value) 0.714644), 1.56; in assay [3] (GN=MYL1/MYL3 (P05976;P08590), -LOG(P-value) 0.754366), -4.118; in assay [3] (GN=RGPD4/RGPD3 (Q7Z3J3;A6NKT7;P49792), -LOG(P-value) 1.07048), -0.9439. The Difference in assay [3] (GN=TUBB2A/TUBB2B (Q13885;Q9BVA1), -LOG(P-value) 2.56756) worked out at 3.9801; in assay [4] (Cmpd minus DMSO, -LOG(P-value) 1.54428), 1.228; in [5] (Cmpd minus DMSO, -LOG(P-value) 0.904761) it was 3.386; in assay [6] (Cmpd minus DMSO, -LOG(P-value) 0.981964) it was 1.653; in assay [7] (Cmpd minus DMSO, -LOG(P-value) 0.706969) it was 1.057; in assay [8] (Cmpd minus DMSO, -LOG(P-value) 0.874244), 2.0669. The molecule further returned a Difference in assay [9] (Cmpd minus DMSO, -LOG(P-value) 0.909034) of -0.9866. For the same molecule, the “iBAQ Cmpd” value in assay [1] (replicates 1-3) was 14.2553 and 14.7701 and 16.566; in [2] (replicates 1-3) it was 16.3801 and 15.3301 and 15.6123; in assay [4] (replicates 1-3), 18.1805 and 17.0719 and 17.7662; in assay [5] (replicates 1-3), 21.59 and 20.9827 and 19.5819; in assay [6] (replicates 1-3) it was 17.9091 and 17.4238 and 17.5156; in [7] (replicates 1-3) it was 17.1694 and 17.27 and 16.0757. Further, the “iBAQ Cmpd” value in assay [8] (replicates 1-3) is 19.5697 and 18.4715 and 18.0629; in assay [9] (replicates 1-3), 23.1983 and 23.5243 and 22.4826.

These data come from PMC9481570, “A small molecule antagonist of SMN disrupts the interaction between SMN and RNAP II” (Nature Communications, 2022).
